Source: PubChem BioAssay AID1963840 (Molecular Pharmacology Branch, DTP, NCI, 2024)

System: 695427-040-R-J1-PDC complex spheroid viability
Assay: Anticancer human tumor 695427-040-R-J1-PDC patient-derived colon adenocarcinoma cell line growth inhibition [POLQ]
Conditions: for IC50: curve of first compound; for viability, T/C: stronger effect = lower value
Procedure, shortened: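 PDC + HUVEC + MSC complex spheroids; POLQ inhibitors ± partner drugs; top conc. at/near clinical Cmax, else 10 microM (SN-38 1 microM), half-log dilutions; 37 degrees C, 5% CO2.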

[1] = second compound 0.0316 µM, first compound 0.00316 µM
[2] = second compound 0.0316 µM, first compound 0.01 µM
[3] = second compound 0.0316 µM, first compound 0.0316 µM
[4] = second compound 0.0316 µM, first compound 0.1 µM
[5] = second compound 0.0316 µM, first compound 0.316 µM
[6] = second compound 0.0316 µM, first compound 1 µM
[7] = second compound 0.1 µM, first compound 0.00316 µM
[8] = second compound 0.1 µM, first compound 0.01 µM
[9] = second compound 0.1 µM, first compound 0.0316 µM
[10] = second compound 0.1 µM, first compound 0.1 µM
[11] = second compound 0.1 µM, first compound 0.316 µM
[12] = second compound 0.1 µM, first compound 1 µM
[13] = second compound 0.316 µM, first compound 0.00316 µM
[14] = second compound 0.316 µM, first compound 0.01 µM
[15] = second compound 0.316 µM, first compound 0.0316 µM
[16] = second compound 0.316 µM, first compound 0.1 µM
[17] = second compound 0.316 µM, first compound 0.316 µM
[18] = second compound 0.316 µM, first compound 1 µM
[19] = second compound 1 µM, first compound 0.00316 µM
[20] = second compound 1 µM, first compound 0.01 µM
[21] = second compound 1 µM, first compound 0.0316 µM
[22] = second compound 1 µM, first compound 0.1 µM
[23] = second compound 1 µM, first compound 0.316 µM
[24] = second compound 1 µM, first compound 1 µM
[25] = second compound 3.16 µM, first compound 0.00316 µM
[26] = second compound 3.16 µM, first compound 0.01 µM
[27] = second compound 3.16 µM, first compound 0.0316 µM
[28] = second compound 3.16 µM, first compound 0.1 µM
[29] = second compound 3.16 µM, first compound 0.316 µM
[30] = second compound 3.16 µM, first compound 1 µM
[31] = second compound 10 µM, first compound 0.00316 µM
[32] = second compound 10 µM, first compound 0.01 µM
[33] = second compound 10 µM, first compound 0.0316 µM
[34] = second compound 10 µM, first compound 0.1 µM
[35] = second compound 10 µM, first compound 0.316 µM
[36] = second compound 10 µM, first compound 1 µM
[37] = second compound 0.0316 µM, first compound 3.16 µM
[38] = second compound 0.0316 µM, first compound 10 µM
[39] = second compound 0.1 µM, first compound 3.16 µM
[40] = second compound 0.1 µM, first compound 10 µM
[41] = second compound 0.316 µM, first compound 3.16 µM
[42] = second compound 0.316 µM, first compound 10 µM
[43] = second compound 1 µM, first compound 3.16 µM
[44] = second compound 1 µM, first compound 10 µM
[45] = second compound 3.16 µM, first compound 3.16 µM
[46] = second compound 3.16 µM, first compound 10 µM
[47] = second compound 10 µM, first compound 3.16 µM
[48] = second compound 10 µM, first compound 10 µM
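Further: spheroids exposed to compounds for seven days.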
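Wherever viability, T/C is given: 100% = DMSO vehicle control viability.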

C=CCn1c(=O)c2cnc(Nc3ccc(N4CCN(C)CC4)cc3)nc2n1-c1cccc(C(C)(C)O)n1 + COC1C(OC(N)=O)C(O)C(Oc2ccc3c(O)c(NC(=O)c4ccc(O)c(CC=C(C)C)c4)c(=O)oc3c2C)OC1(C)C
IC50 (second compound 0.0316 µM): > 1 µM
IC50 (second compound 0.1 µM): > 1 µM
IC50 (second compound 0.316 µM): > 1 µM
IC50 (second compound 1 µM): > 1 µM
IC50 (second compound 3.16 µM): > 1 µM
IC50 (second compound 10 µM): > 1 µM
viability, T/C [1]: 98.2%
viability, T/C [2]: 91.8%
viability, T/C [3]: 110%
viability, T/C [4]: 95.3%
viability, T/C [5]: 95.5%
viability, T/C [6]: 82.2%
viability, T/C [7]: 103%
viability, T/C [8]: 103%
viability, T/C [9]: 96.3%
viability, T/C [10]: 102%
viability, T/C [11]: 98.4%
viability, T/C [12]: 80.3%
viability, T/C [13]: 105%
viability, T/C [14]: 114%
viability, T/C [15]: 103%
viability, T/C [16]: 105%
viability, T/C [17]: 91.8%
viability, T/C [18]: 70.9%
viability, T/C [19]: 99.2%
viability, T/C [20]: 98.5%
viability, T/C [21]: 101%
viability, T/C [22]: 96.3%
viability, T/C [23]: 97.3%
viability, T/C [24]: 72.4%
viability, T/C [25]: 92.3%
viability, T/C [26]: 102%
viability, T/C [27]: 106%
viability, T/C [28]: 97.4%
viability, T/C [29]: 95.3%
viability, T/C [30]: 79.1%
viability, T/C [31]: 97.9%
viability, T/C [32]: 95%
viability, T/C [33]: 106%
viability, T/C [34]: 101%
viability, T/C [35]: 103%
viability, T/C [36]: 71.7%

CCc1c2c(nc3ccc(O)cc13)-c1cc3c(c(=O)n1C2)COC(=O)[C@]3(O)CC + COC1C(OC(N)=O)C(O)C(Oc2ccc3c(O)c(NC(=O)c4ccc(O)c(CC=C(C)C)c4)c(=O)oc3c2C)OC1(C)C
IC50 (second compound 0.0316 µM): 0.976 µM
IC50 (second compound 0.1 µM): 0.893 µM
IC50 (second compound 0.316 µM): > 1 µM
IC50 (second compound 1 µM): 0.985 µM
IC50 (second compound 3.16 µM): 0.809 µM
IC50 (second compound 10 µM): 0.656 µM
viability, T/C [1]: 97.5%
viability, T/C [2]: 89%
viability, T/C [3]: 82.6%
viability, T/C [4]: 78.9%
viability, T/C [5]: 68.2%
viability, T/C [6]: 48.1%
viability, T/C [7]: 102%
viability, T/C [8]: 91.4%
viability, T/C [9]: 86.9%
viability, T/C [10]: 78.4%
viability, T/C [11]: 68.4%
viability, T/C [12]: 46.9%
viability, T/C [13]: 107%
viability, T/C [14]: 94.4%
viability, T/C [15]: 78.8%
viability, T/C [16]: 78.3%
viability, T/C [17]: 68.8%
viability, T/C [18]: 50.5%
viability, T/C [19]: 97.3%
viability, T/C [20]: 97.5%
viability, T/C [21]: 81.7%
viability, T/C [22]: 78.9%
viability, T/C [23]: 69.1%
viability, T/C [24]: 48.4%
viability, T/C [25]: 97%
viability, T/C [26]: 90.9%
viability, T/C [27]: 87.7%
viability, T/C [28]: 75.8%
viability, T/C [29]: 63.2%
viability, T/C [30]: 47%
viability, T/C [31]: 98.7%
viability, T/C [32]: 84.6%
viability, T/C [33]: 85.7%
viability, T/C [34]: 74.5%
viability, T/C [35]: 64.2%
viability, T/C [36]: 42%

Nc1ccn(C2OC(CO)C(O)C2(F)F)c(=O)n1 (stereo not drawn) + COC1C(OC(N)=O)C(O)C(Oc2ccc3c(O)c(NC(=O)c4ccc(O)c(CC=C(C)C)c4)c(=O)oc3c2C)OC1(C)C
IC50 (second compound 0.0316 µM): > 10 µM
IC50 (second compound 0.1 µM): > 10 µM
IC50 (second compound 0.316 µM): > 10 µM
IC50 (second compound 1 µM): > 10 µM
IC50 (second compound 3.16 µM): > 10 µM
IC50 (second compound 10 µM): > 10 µM
viability, T/C [3]: 82%
viability, T/C [4]: 81.5%
viability, T/C [5]: 75.1%
viability, T/C [6]: 72.2%
viability, T/C [37]: 63.9%
viability, T/C [38]: 55.2%
viability, T/C [9]: 91.1%
viability, T/C [10]: 82.6%
viability, T/C [11]: 73.1%
viability, T/C [12]: 70%
viability, T/C [39]: 68.3%
viability, T/C [40]: 50.5%
viability, T/C [15]: 96.2%
viability, T/C [16]: 78.5%
viability, T/C [17]: 76.6%
viability, T/C [18]: 70.2%
viability, T/C [41]: 63.5%
viability, T/C [42]: 47.6%
viability, T/C [21]: 92%
viability, T/C [22]: 84%
viability, T/C [23]: 71.8%
viability, T/C [24]: 70%
viability, T/C [43]: 62.5%
viability, T/C [44]: 48.6%
viability, T/C [27]: 89.2%
viability, T/C [28]: 81.9%
viability, T/C [29]: 72.5%
viability, T/C [30]: 67%
viability, T/C [45]: 63.2%
viability, T/C [46]: 52.1%
viability, T/C [33]: 93.1%
viability, T/C [34]: 82.3%
viability, T/C [35]: 75.3%
viability, T/C [36]: 73.1%
viability, T/C [47]: 66.4%
viability, T/C [48]: 52.1%

O=C(c1cc(Cc2n[nH]c(=O)c3ccccc23)ccc1F)N1CCN(C(=O)C2CC2)CC1 + COC1C(OC(N)=O)C(O)C(Oc2ccc3c(O)c(NC(=O)c4ccc(O)c(CC=C(C)C)c4)c(=O)oc3c2C)OC1(C)C
IC50 (second compound 0.0316 µM): > 10 µM
IC50 (second compound 0.1 µM): > 10 µM
IC50 (second compound 0.316 µM): > 10 µM
IC50 (second compound 1 µM): > 10 µM
IC50 (second compound 3.16 µM): > 10 µM
IC50 (second compound 10 µM): > 10 µM
viability, T/C [3]: 115%
viability, T/C [4]: 106%
viability, T/C [5]: 105%
viability, T/C [6]: 105%
viability, T/C [37]: 110%
viability, T/C [38]: 97.9%
viability, T/C [9]: 108%
viability, T/C [10]: 108%
viability, T/C [11]: 108%
viability, T/C [12]: 105%
viability, T/C [39]: 111%
viability, T/C [40]: 96.3%
viability, T/C [15]: 110%
viability, T/C [16]: 96.9%
viability, T/C [17]: 105%
viability, T/C [18]: 104%
viability, T/C [41]: 114%
viability, T/C [42]: 108%
viability, T/C [21]: 110%
viability, T/C [22]: 105%
viability, T/C [23]: 104%
viability, T/C [24]: 106%
viability, T/C [43]: 117%
viability, T/C [44]: 101%
viability, T/C [27]: 97.1%
viability, T/C [28]: 96.7%
viability, T/C [29]: 94.3%
viability, T/C [30]: 108%
viability, T/C [45]: 117%
viability, T/C [46]: 112%
viability, T/C [33]: 103%
viability, T/C [34]: 103%
viability, T/C [35]: 115%
viability, T/C [36]: 107%
viability, T/C [47]: 114%
viability, T/C [48]: 97%
